In the test the test system is iPSC line MSC-iPS1. Nature of the test: Hematopoietic differentiation of hiPSCs (flow cytometry and colony assay). Conditions: SB added between days 2 to 4; hiPSC; FIG. 7. The format is cell-based, human. The protocol:
The hESC line H1 (Thomson et al., 1998) and the reprogrammed human iPS cell line (MSC-iPS1; (Park et al., 2008)) were used in this study. They were maintained on irradiated mouse embryonic fibroblasts in hESC media as described previously (Kennedy et al., 2007). Prior to differentiation, the cells were feeder-depleted by culturing on matrigel (BD Biosciences, Bedford, Mass.) in hESC media for 24 to 48 hours. To generate EBs, hPSCs were treated with collagenase B (1 mg/ml; Roche, Indianapolis, Ind.) for 20 minutes followed by a short trypsin-EDTA (0.05%) step. Cells were gently scraped with a cell scraper to form small aggregates (10-20 cells). […]
The following antibodies were used for these studies: CD3-APC (clone UCHT1), CD4-APC-EFluor750 (clone RPA-T4), CD5-PE-Cy7 (clone L17F12), CD7-FITC (clone M-T701), CD8-eFluor-650 NC (clone RPA-T8), CD31-FITC (clone WM59), CD33-FITC (clone HIM 3-4), CD34-APC (clone 8G12), CD34-PE-CY7 (clone 4H11), CD41-APC (clone HIP8), CD42b-PE (clone HIP1), CD43-PE (clone 1G10), CD45-APC-eFluor750 (clone 2D1) or CD45-PacificBlue (clone H130), CD56-PE-Cy7 (clone B159), CD90-APC (clone 5E10), CD117-APC (clone 104D2), CD144-PE (clone 123413), KDR-PE (clone 89106), TCRγδ-FITC (clone 11F2), TCRαβ-PE (clone T10B9.1A-31). Stained cells were analyzed using an LSRII (BD Biosciences) flow cytometer at the indicated time points. […]
In general terms: A flow cytometer gives signals particle by particle.

With `NC(=O)c1ccc(-c2nc(-c3ccc4c(c3)OCO4)c(-c3ccccn3)[nH]2)cc1` [SB-431542], the “development of CD41+/CD43+ populations and erythroid and erythroid-myeloid progenitors” value is reported as “inhibited”.

Values taken from patent US9834754B2, “Populations of hematopoietic progenitors and methods of enriching stem cells therefor” (University Health Network, priority 2011, dated 2017).
